Results published in US11746111B2, “Siderophore conjugated pyrazolidinones, and analogues thereof” (YALE UNIVERSITY, priority 2018, dated 2023).
≈ marks a conversion by molar mass, not a printed value. Like-named read-outs stand apart in the source and are kept apart here.

Tests used:
[1] = tested on: K. pneumoniae clinical isolates; assay: Microdilution broth MIC, K. pneumoniae clinical isolates (Table 1); type: cell-based; settings: Klebsiella pneumoniae
Protocol: (§1) Microdilution Broth Minimum Inhibitory Concentrations (MICs)
(§2) MICs were performed in triplicate in cation adjusted Mueller-Hinton (MH) broth 30 according to CLSI guidelines. Firstly, overnight cultures of E. coli and K. pneumoniae clinical isolates were inoculated into 5 ml MH broth to OD600=0.1 and grown to OD600=0.224 (approximately 1-2×10^8 CFU/ml). These cultures were diluted (3 μl+4997 μl MH) and 100 μl inoculated into each well of a 96-well plate containing 100 μl of serial dilutions of compound 26 (YU253434), ampicillin, ceftazidime, or imipenem. The plates were placed in a 37° C. incubator for 18-20 hours and wells checked for growth.

[2] = tested on: E. coli clinical isolates; assay: Microdilution broth MIC, E. coli clinical isolates (Table 1); type: cell-based; settings: Escherichia coli
Protocol: as §1, §2

[3] = K. pneumoniae 7000063, β-lactamase SHV-18, read-out: MIC
[4] = K. pneumoniae KB390 Quale, TEM-30, TEM-1, KPC-2, SHV-12, read-out: MIC
[5] = K. pneumoniae LC40, CTX-M-1 grp(15), TEM (164S), read-out: MIC
[6] = K. pneumoniae LC56, CTX-M-1 grp(15), read-out: MIC
[7] = K. pneumoniae LC102, SHV-1 (WT + 238S), read-out: MIC
[8] = K. pneumoniae LC121, SHV-1 (WT + 238S + 240K), read-out: MIC
[9] = K. pneumoniae Rush23, CTX-M-9 group, read-out: MIC
[10] = K. pneumoniae VA-184, KPC-2, SHV-11, SHV-12, read-out: MIC
[11] = K. pneumoniae VA-267, KPC-3, TEM-1, SHV-11, SHV-12, read-out: MIC
[12] = K. pneumoniae VA-357, KPC-2, SHV-11, read-out: MIC
[13] = K. pneumoniae VA-368, KPC-2, TEM-1, SHV-5, SHV-68, read-out: MIC
[14] = K. pneumoniae VA-384, KPC-2, TEM-1, SHV-11, SHV-12, SHV-14, read-out: MIC
[15] = K. pneumoniae VA-391, KPC-3, TEM-1, SHV-11, SHV-12, SHV-77, read-out: MIC
[16] = K. pneumoniae VA-398, KPC-3, TEM-1, SHV-11, SHV-12, SHV-27, read-out: MIC
[17] = K. pneumoniae VA-400, KPC-2, TEM-1, SHV-11, SHV-12, read-out: MIC
[18] = K. pneumoniae VA-406, KPC-2, TEM-1, SHV-11, SHV-12, read-out: MIC
[19] = K. pneumoniae VA-410, KPC-3, TEM-1, SHV-11, read-out: MIC
[20] = BAA202, E. coli BAA-202, SHV-1, read-out: MIC
[21] = E. coli LC15, CTX-M-9 group, CTX-M-1 grp(15)
[22] = E. coli LC38, CTX-M-1 grp(15), PB AmpC (ACT/MIR)
[23] = E. coli LC41, TEM (238S), PB AmpC (ACT/MIR), CTX-M-1 grp(15)
[24] = E. coli LC77, TEM, KPC, read-out: MIC
[25] = E. coli LC81, SHV (238S + 240K), read-out: MIC
[26] = E. coli LC98, CMY (group II), read-out: MIC
[27] = E. coli LC109, CTX-M-9 group, CMY (group II)
[28] = E. coli LC111, TEM (164S), read-out: MIC
[29] = E. coli LC136, SHV (WT + 238S), read-out: MIC
[30] = E. coli Rush24, CMY (group II), read-out: MIC
[31] = E. coli 35218, TEM-1, read-out: MIC
[32] = E. coli LC12, CTX-M-1 grp(15), read-out: MIC
[33] = E. coli LC91, CTX-M-1 grp(15), CMY (group II), read-out: MIC

SMILES: C[C@@H](O)[C@H]1C(=O)N2C(C(=O)O)=C(SCCN=CN)C[C@H]12 [Imipenem]
- MIC [1, 3]: < 0.125 µg/mL
- MIC [1, 4]: 4 µg/mL (≈ 13.4 µM)
- MIC [1, 5]: 0.25 µg/mL (≈ 0.835 µM)
- MIC [1, 6]: 0.5 µg/mL (≈ 1.67 µM)
- MIC [1, 7]: < 0.125 µg/mL
- MIC [1, 8]: < 0.125 µg/mL
- MIC [1, 9]: < 0.125 µg/mL
- MIC [1, 10]: 8 µg/mL (≈ 26.7 µM)
- MIC [1, 11]: 4 µg/mL (≈ 13.4 µM)
- MIC [1, 12]: 8 µg/mL (≈ 26.7 µM)
- MIC [1, 13]: 1 µg/mL (≈ 3.34 µM)
- MIC [1, 14]: 32 µg/mL (≈ 107 µM)
- MIC [1, 15]: 4 µg/mL (≈ 13.4 µM)
- MIC [1, 16]: 1 µg/mL (≈ 3.34 µM)
- MIC [1, 17]: 4 µg/mL (≈ 13.4 µM)
- MIC [1, 18]: > 128 µg/mL
- MIC [1, 19]: 2 µg/mL (≈ 6.68 µM)
- MIC [2, 20]: 0.25 µg/mL (≈ 0.835 µM)
- MIC ([2]; E. coli 35218, TEM-1): < 0.125 µg/mL
- MIC ([2]; E. coli LC4, TEM, SHV-12): < 0.125 µg/mL
- MIC ([2]; E. coli LC12, CTX-M-1 grp(15)): 128 µg/mL (≈ 428 µM)
- MIC [2, 21]: < 0.125 µg/mL
- MIC ([2]; E. coli LC33, CTX-M-9 group): < 0.125 µg/mL
- MIC [2, 22]: < 0.125 µg/mL
- MIC [2, 23]: < 0.125 µg/mL
- MIC [2, 24]: 2 µg/mL (≈ 6.68 µM)
- MIC [2, 25]: < 0.125 µg/mL
- MIC ([2]; E. coli LC91, CTX-M-1 grp(15), CMY (group II)): < 0.125 µg/mL
- MIC [2, 26]: < 0.125 µg/mL
- MIC [2, 27]: < 0.125 µg/mL
- MIC [2, 28]: < 0.125 µg/mL
- MIC [2, 29]: < 0.125 µg/mL
- MIC [2, 30]: 0.25 µg/mL (≈ 0.835 µM)

SMILES: CC(C)(O/N=C(\C(=O)N[C@@H]1C(=O)N2C(C(=O)[O-])=C(C[n+]3ccccc3)CS[C@H]12)c1csc(N)n1)C(=O)O [Ceftazidime]
- MIC [1, 3]: 16 µg/mL (≈ 29.3 µM)
- MIC ([1]; K. pneumoniae KB390 Quale, TEM-30, TEM-1, KPC-2, SHV-12): 512 µg/mL (≈ 937 µM)
- MIC [1, 5]: < 1 µg/mL
- MIC [1, 6]: 16 µg/mL (≈ 29.3 µM)
- MIC [1, 7]: 4 µg/mL
- MIC [1, 8]: 16 µg/mL
- MIC [1, 9]: 2 µg/mL (≈ 3.66 µM)
- MIC ([1]; K. pneumoniae VA-184, KPC-2, SHV-11, SHV-12): 256 µg/mL (≈ 468 µM)
- MIC ([1]; K. pneumoniae VA-267, KPC-3, TEM-1, SHV-11, SHV-12): 512 µg/mL (≈ 937 µM)
- MIC ([1]; K. pneumoniae VA-357, KPC-2, SHV-11): 128 µg/mL (≈ 234 µM)
- MIC [1, 13]: 16 µg/mL (≈ 29.3 µM)
- MIC ([1]; K. pneumoniae VA-384, KPC-2, TEM-1, SHV-11, SHV-12, SHV-14): 256 µg/mL (≈ 468 µM)
- MIC ([1]; K. pneumoniae VA-391, KPC-3, TEM-1, SHV-11, SHV-12, SHV-77): 256 µg/mL (≈ 468 µM)
- MIC [1, 16]: 32 µg/mL (≈ 58.5 µM)
- MIC ([1]; K. pneumoniae VA-400, KPC-2, TEM-1, SHV-11, SHV-12): 256 µg/mL (≈ 468 µM)
- MIC ([1]; K. pneumoniae VA-406, KPC-2, TEM-1, SHV-11, SHV-12): 256 µg/mL (≈ 468 µM)
- MIC ([1]; K. pneumoniae VA-410, KPC-3, TEM-1, SHV-11): 128 µg/mL (≈ 234 µM)
- MIC [2, 20]: 16 µg/mL (≈ 29.3 µM)
- MIC [2, 31]: < 1 µg/mL
- MIC ([2]; E. coli LC4, TEM, SHV-12): 256 µg/mL (≈ 468 µM)
- MIC [2, 32]: > 1020 µg/mL
- MIC ([2]; E. coli LC15, CTX-M-9 group, CTX-M-1 grp(15), read-out: MIC): < 1 µg/mL
- MIC ([2]; E. coli LC33, CTX-M-9 group, read-out: MIC): 4 µg/mL (≈ 7.32 µM)
- MIC ([2]; E. coli LC38, CTX-M-1 grp(15), PB AmpC (ACT/MIR), read-out: MIC): < 1 µg/mL
- MIC ([2]; E. coli LC41, TEM (238S), PB AmpC (ACT/MIR), CTX-M-1 grp(15), read-out: MIC): < 1 µg/mL
- MIC [2, 24]: 16 µg/mL (≈ 29.3 µM)
- MIC [2, 25]: 128 µg/mL
- MIC [2, 33]: 16 µg/mL (≈ 29.3 µM)
- MIC [2, 26]: 256 µg/mL (≈ 468 µM)
- MIC ([2]; E. coli LC109, CTX-M-9 group, CMY (group II), read-out: MIC): 32 µg/mL (≈ 58.5 µM)
- MIC [2, 28]: 2 µg/mL (≈ 3.66 µM)
- MIC [2, 29]: < 1 µg/mL
- MIC [2, 30]: 256 µg/mL (≈ 468 µM)

SMILES: CC1(C)S[C@@H]2[C@H](NC(=O)[C@H](N)c3ccccc3)C(=O)N2[C@H]1C(=O)O [Ampicillin]
- MIC ([1]; K. pneumoniae 7000063, β-lactamase SHV-18): 1020 µg/mL (≈ 2930 µM)
- MIC [1, 4]: > 2050 µg/mL
- MIC ([1]; K. pneumoniae LC40, CTX-M-1 grp(15), TEM (164S)): 512 µg/mL (≈ 1470 µM)
- MIC [1, 6]: > 2050 µg/mL
- MIC [1, 7]: > 2050 µg/mL
- MIC ([1]; K. pneumoniae LC121, SHV-1 (WT + 238S + 240K)): 1020 µg/mL
- MIC [1, 9]: > 2050 µg/mL
- MIC [1, 10]: > 2050 µg/mL
- MIC [1, 11]: > 2050 µg/mL
- MIC [1, 12]: > 2050 µg/mL
- MIC [1, 13]: > 2050 µg/mL
- MIC [1, 14]: > 2050 µg/mL
- MIC [1, 15]: > 2050 µg/mL
- MIC [1, 16]: > 2050 µg/mL
- MIC [1, 17]: > 2050 µg/mL
- MIC [1, 18]: > 2050 µg/mL
- MIC [1, 19]: > 2050 µg/mL
- MIC ([2]; BAA202, E. coli BAA-202, SHV-1): > 2050 µg/mL
- MIC [2, 31]: 256 µg/mL (≈ 733 µM)
- MIC ([2]; E. coli LC4, TEM, SHV-12): > 2050 µg/mL
- MIC [2, 32]: 2050 µg/mL (≈ 5860 µM)
- MIC [2, 21]: 1020 µg/mL (≈ 2930 µM)
- MIC ([2]; E. coli LC33, CTX-M-9 group): 512 µg/mL (≈ 1470 µM)
- MIC [2, 22]: 512 µg/mL (≈ 1470 µM)
- MIC [2, 23]: 512 µg/mL (≈ 1470 µM)
- MIC [2, 24]: 2050 µg/mL (≈ 5860 µM)
- MIC [2, 25]: 2050 µg/mL
- MIC [2, 33]: 2050 µg/mL (≈ 5860 µM)
- MIC [2, 26]: 2050 µg/mL (≈ 5860 µM)
- MIC [2, 27]: 1020 µg/mL (≈ 2930 µM)
- MIC [2, 28]: 1020 µg/mL (≈ 2930 µM)
- MIC [2, 29]: 512 µg/mL
- MIC ([2]; E. coli Rush24, CMY (group II)): > 2050 µg/mL
